The source of these data is patent US10428055B2, “Substituted piperidines having GPR119 agonistic activity” (DONG-A ST CO., LTD., priority 2014, dated 2019).

The target in the test is T1, Human GPR119 (Homo sapiens, UniProt Q8TDV5).
T1 construct: host or cells: HEK293 (ATCC)
T1 sequence (Q8TDV5 1-335): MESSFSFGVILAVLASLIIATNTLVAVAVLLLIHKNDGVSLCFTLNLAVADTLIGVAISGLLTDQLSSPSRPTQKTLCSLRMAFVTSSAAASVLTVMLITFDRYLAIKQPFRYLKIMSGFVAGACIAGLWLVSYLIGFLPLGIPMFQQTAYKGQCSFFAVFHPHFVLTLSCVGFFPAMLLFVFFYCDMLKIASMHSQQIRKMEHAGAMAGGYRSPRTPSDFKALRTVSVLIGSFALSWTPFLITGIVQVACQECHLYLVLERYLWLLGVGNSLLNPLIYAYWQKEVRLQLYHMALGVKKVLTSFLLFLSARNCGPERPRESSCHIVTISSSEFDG
The experiment in a line: Human GPR119 activation assay (cAMP, HTRF). Particulars: 1 h, HEK293 cells transiently expressing human GPR119, relative to maximum effect of OEA, read-out: hGPR119 activation ability (cAMP assay) Relative Response % vs OEA; for Emax at 0.001 µM: 1 nM; for Emax at 0.01 µM: 10 nM. It is filed as cell-based. The text has this:
<Experimental Example 1>Human GPR119 activation assay
Human GPR119 was temporarily expressed on cells, thereby quantifying the amount of cyclic adenosine 3′,5′-monophosphate (cAMP) increased upon activating GPR119 by the compound of the present invention, using the product from Cysbio, by a method of HTRF (homogeneous time resolved fluorescence), and such quantification was used to refer to efficacy on GPR119 activation.
Human GPR119 expression vector (Origene) was overexpressed in […] renal epithelial cells (HEK293) (ATCC), and the cells were stabilized for 48 hours. With a solution of 11.1 mM glucose, 0.1% bovine serum albumin, and 0.5 mM IBMX (3-isobutyl-1-methylxanthine) which is a phosphodiesterase inhibitor being added to a KRBH (Krebs-Ringer Bicarbonate HEPES; Hou ZQ. et al., Mol Cell Endocrinol, 2008(291):71-78) buffer, the cells were pre-treated for 10 minutes. Thereafter, the cells were treated with the same solution containing a drug for 60 minutes, then the supernatant was removed, and the increase in cAMP in cells was quantified using a Cysbio cAMP HiRange kit.
As to the maximum efficacy of compounds tested, multiple concentration assessment for the compounds of the present invention was carried out, thereby assessing the relative activation level (%) to the maximum effect of oleoylethanolamide (OEA), an endogenous ligand of GPR119.

Consider `CCCc1cnc(N2CCC(CCCOc3cc(F)c(-c4nnc(C(C)C)s4)c(F)c3)CC2)nc1` [Example 61, 2-(2,6-difluoro-4-(3-(1-(5-propylpyrimidin-2-yl)piperidin-4-yl)propoxy)phenyl)-5-isopropyl-1,3,4-thiadiazole], for which the Emax at 0.001 µM stood at 98.1% and the Emax at 0.01 µM amounted to 186%.
As for `CC(C)Cc1nc(-c2cnc(N3CCC(CCCOc4cc(F)c(-c5noc(C(C)(C)CO)n5)c(F)c4)CC3)nc2)no1` [Example 36, 2-(3-(2,6-difluoro-4-(3-(1-(5-(5-isobutyl-1,2,4-oxadiazol-3-yl)pyrimidin-2-yl)piperidin-4-yl)propoxy)phenyl)-1,2,4-oxadiazol-5-yl)-2-methylpropan-1-ol], the Emax at 0.001 µM came out at 66.4% and the Emax at 0.01 µM came to 174%.
As to `CCCc1noc(N2CCC(CCCOc3cc(F)c(-c4nnc(CC)o4)c(F)c3)CC2)n1` [Example 53, 5-(4-(3-(3,5-difluoro-4-(5-ethyl-1,3,4-oxadiazol-2-yl)phenoxy)propyl)piperidin-1-yl)-3-propyl-1,2,4-oxadiazole], the Emax at 0.001 µM is 94.3% and the Emax at 0.01 µM came out at 154%.
For the compound `CC(C)c1noc(N2CCC(CCCOc3cc(F)c(-c4noc(CO)n4)c(F)c3)CC2)n1` [Example 41, (3-(2,6-difluoro-4-(3-(1-(3-isopropyl-1,2,4-oxadiazol-5-yl)piperidin-4-yl)propoxy)phenyl)-1,2,4-oxadiazol-5-yl)methanol], the Emax at 0.001 µM was 74.4% and the Emax at 0.01 µM was determined as 203%.
The like results for `CCCc1noc(N2CCC(CCCOc3cc(F)c(-c4nnc(C(C)C)o4)c(F)c3)CC2)n1` [Example 54, 5-(4-(3-(3,5-difluoro-4-(5-isopropyl-1,3,4-oxadiazol-2-yl)phenoxy)propyl)piperidin-1-yl)-3-propyl-1,2,4-oxadiazole] were, in that order, 75.1% and 241%.
The like results for `CCCc1nc(-c2c(F)cc(OCCCC3CCN(c4ncc(CC)cn4)CC3)cc2F)no1` [Example 14, 3-(4-(3-(1-(5-ethylpyrimidin-2-yl)piperidin-4-yl)propoxy)-2,6-difluorophenyl)-5-propyl-1,2,4-oxadiazole] were, in that order, 96% and 131%.
The like results for `CC(C)c1nnc(-c2c(F)cc(OCCCC3CCN(c4ncc(F)cn4)CC3)cc2F)s1` [Example 63, 2-(2,6-difluoro-4-(3-(1-(5-fluoropyrimidin-2-yl)piperidin-4-yl)propoxy)phenyl)-5-isopropyl-1,3,4-thiadiazole] were, in that order, 114% and 228%.
Consider `CC(C)c1nc(N2CCC(CCCOc3cc(F)c(-c4nnc(C(C)C)o4)c(F)c3)CC2)no1` [Example 59, 3-(4-(3-(3,5-difluoro-4-(5-isopropyl-1,3,4-oxadiazol-2-yl)phenoxy)propyl)piperidin-1-yl)-5-isopropyl-1,2,4-oxadiazole], for which the Emax at 0.001 µM turned out to be 140% and the Emax at 0.01 µM turned out to be 329%.
The like results for `CCc1nnc(-c2c(F)cc(OCCCC3CCN(c4cnc(Cl)cn4)CC3)cc2F)o1` [Example 50, 2-(4-(3-(1-(5-chloropyrazin-2-yl)piperidin-4-yl)propoxy)-2,6-difluorophenyl)-5-ethyl-1,3,4-oxadiazole] were, in that order, 120% and 308%.
The like results for `CC[C@H](O)c1nc(-c2c(F)cc(OCCCC3CCN(c4ncc(-c5noc(CC(C)C)n5)cn4)CC3)cc2F)no1` [Example 35, (S)-1-(3-(2,6-difluoro-4-(3-(1-(5-(5-isobutyl-1,2,4-oxadiazol-3-yl)pyrimidin-2-yl)piperidin-4-yl)propoxy)phenyl)-1,2,4-oxadiazol-5-yl) propan-1-ol] were, in that order, 52.5% and 118%.
Regarding `Cc1nnc(-c2c(F)cc(OCCCC3CCN(c4nc(CC(F)(F)F)no4)CC3)cc2F)o1` [Example 58, 5-(4-(3-(3,5-difluoro-4-(5-methyl-1,3,4-oxadiazol-2-yl)phenoxy)propyl)piperidin-1-yl)-3-(2,2,2-trifluoroethyl)-1,2,4-oxadiazole], the Emax at 0.001 µM came out at 699%.
Regarding `CC(C)Cc1nc(-c2cnc(N3CCC(CCCOc4cc(F)c(-c5noc(C(C)C)n5)c(F)c4)CC3)nc2)no1` [Example 32, 3-(2,6-difluoro-4-(3-(1-(5-(5-isobutyl-1,2,4-oxadiazol-3-yl)pyrimidin-2-yl)piperidin-4-yl)propoxy)phenyl)-5-isopropyl-1,2,4-oxadiazole], the Emax at 0.001 µM was 201% and the Emax at 0.01 µM is 288%.
The like results for `CC(C)c1nc(-c2c(F)cc(OCCCC3CCN(c4ncc(Br)cn4)CC3)cc2F)no1` [Example 29, 3-(4-(3-(1-(5-bromopyrimidin-2-yl)piperidin-4-yl)propoxy)-2,6-difluorophenyl)-5-isopropyl-1,2,4-oxadiazole] were, in that order, 75.3% and 173%.
For `CC(C)c1noc(N2CCC(CCCOc3cc(F)c(C4=N[C@H](C)CO4)c(F)c3)CC2)n1` [Example 10, (R)-5-(4-(3-(3,5-difluoro-4-(4-methyl-4,5-dihydrooxazol-2-yl)phenoxy)propyl)piperidin-1-yl)-3-isopropyl-1,2,4-oxadiazole], the Emax at 0.001 µM was 192% and the Emax at 0.01 µM turned out to be 266%.
Take `CC(C)c1nnc(-c2c(F)cc(OCCCC3CCN(c4ccc(C(F)(F)F)cn4)CC3)cc2F)s1` [Example 65, 2-(2,6-difluoro-4-(3-(1-(5-(trifluoromethyl)pyridin-2-yl)piperidin-4-yl)propoxy)phenyl)-5-isopropyl-1,3,4-thiadiazole]: the Emax at 0.001 µM amounted to 78.1% and the Emax at 0.01 µM is 189%.
Consider `CCc1cnc(N2CCC(CCCOc3cc(F)c(-c4nnc(C(C)C)s4)c(F)c3)CC2)nc1` [Example 60, 2-(4-(3-(1-(5-ethylpyrimidin-2-yl)piperidin-4-yl)propoxy)-2,6-difluorophenyl)-5-isopropyl-1,3,4-thiadiazole], for which the Emax at 0.001 µM turned out to be 285% and the Emax at 0.01 µM stood at 516%.
The like results for `CCc1cnc(N2CCC(CCCOc3cc(F)c(-c4nc(CC)cs4)c(F)c3)CC2)nc1` [Example 66, 4-ethyl-2-(4-(3-(1-(5-ethylpyrimidin-2-yl)piperidin-4-yl)propoxy)-2,6-difluorophenyl) thiazole] were, in that order, 95.6% and 120%.
The like results for `CCCCCc1cnc(N2CCC(CCCOc3cc(F)c(-c4nnc(C(C)C)s4)c(F)c3)CC2)nc1` [Example 62, 2-(2,6-difluoro-4-(3-(1-(5-pentylpyrimidin-2-yl)piperidin-4-yl)propoxy)phenyl)-5-isopropyl-1,3,4-thiadiazole] were, in that order, 88.8% and 169%.
`CCCc1noc(N2CCC(CCCOc3cc(F)c(-c4nnc(C)o4)c(F)c3)CC2)n1` [Example 52, 5-(4-(3-(3,5-difluoro-4-(5-methyl-1,3,4-oxadiazol-2-yl)phenoxy)propyl)piperidin-1-yl)-3-propyl-1,2,4-oxadiazole]: the Emax at 0.001 µM was 191% and the Emax at 0.01 µM came to 295%.
In the case of `CCc1cnc(N2CCC(CCCOc3cc(F)c(-c4nnc(C(C)C)o4)c(F)c3)CC2)nc1` [Example 44, 2-(4-(3-(1-(5-ethylpyrimidin-2-yl)piperidin-4-yl)propoxy)-2,6-difluorophenyl)-5-isopropyl-1,3,4-oxadiazole], the Emax at 0.001 µM was determined as 493% and the Emax at 0.01 µM came out at 830%.
The like results for `COc1cnc(N2CCC(CCCOc3cc(F)c(-c4noc(C(C)C)n4)c(F)c3)CC2)nc1` [Example 26, 3-(2,6-difluoro-4-(3-(1-(5-methoxypyrimidin-2-yl)piperidin-4-yl)propoxy)phenyl)-5-isopropyl-1,2,4-oxadiazole] were, in that order, 67.8% and 165%.
The like results for `CCC(C)c1nc(-c2c(F)cc(OCCCC3CCN(c4ncc(-c5noc(CC(C)C)n5)cn4)CC3)cc2F)no1` (stereo not drawn) [Example 33, 5-(sec-butyl)-3-(2,6-difluoro-4-(3-(1-(5-(5-isobutyl-1,2,4-oxadiazol-3-yl)pyrimidin-2-yl)piperidin-4-yl)propoxy)phenyl)-1,2,4-oxadiazole] were, in that order, 66.8% and 108%.
The like results for `CCc1cnc(N2CCC(CCCOc3cc(F)c(-c4noc(CCO)n4)c(F)c3)CC2)nc1` [Example 18, 2-(3-(4-(3-(1-(5-ethylpyrimidin-2-yl)piperidin-4-yl)propoxy)-2,6-difluorophenyl)-1,2,4-oxadiazol-5-yl)ethan-1-ol] were, in that order, 303% and 436%.
